Experimental data published in US10934310B2, “Inhibitors of Bruton's tyrosine kinase and method of their use” (JANSSEN PHARMACEUTICA NV, priority 2015, dated 2021).

Biological target: unphosphorylated-BTK kinase domain (UP-BTK), GST-tagged human BTK (389-659aa) (Homo sapiens (Human), UniProt Q06187)
Assay: BTK Kinase Lanthascreen Binding Assay
Conditions: Lanthascreen binding, 60 minutes incubation; pIC50 = negative log of the IC50 in molar
Description: BTK Kinase Lanthascreen Binding Assay:
A BTK kinase lanthascreen binding assay monitors compound binding to unphosphorylated-BTK kinase domain (UP-BTK), by competing with a fluorescent labeled tracer. […] Data were analyzed using Xlfit™ version 5.3 from ID Business Solutions (Guildford), Microsoft Excel add-in. pIC50 refers to the negative log of the IC50 in molar.

unphosphorylated-BTK kinase domain (UP-BTK), GST-tagged human BTK (389-659aa), sequence (Q06187 389-659): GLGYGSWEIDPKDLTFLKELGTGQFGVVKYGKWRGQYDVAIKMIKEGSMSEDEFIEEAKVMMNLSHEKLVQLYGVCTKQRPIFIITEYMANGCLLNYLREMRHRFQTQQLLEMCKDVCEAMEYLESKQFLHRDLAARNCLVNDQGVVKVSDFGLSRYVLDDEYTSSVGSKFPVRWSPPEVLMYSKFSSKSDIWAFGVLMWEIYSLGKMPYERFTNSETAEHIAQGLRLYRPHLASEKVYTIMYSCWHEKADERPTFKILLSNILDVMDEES

In order of falling “BTK_I_binding pIC50” value:
1. C=CC(=O)N[C@H]1CCCC[C@H]1NC(=O)c1sc2nccc3c2c1NC(=O)N3c1ccc(Oc2ccccc2)nc1C (single isomer, unassigned) [Example 303, N-((1R,2S)-2-Acrylamidocyclohexyl)-5-(*S)-(2-methyl-6-phenoxypyridin-3-yl)-4-oxo-4,5-dihydro-3H-1-thia-3,5,8-triazaacenaphthylene-2-carboxamide]  8.40
2. C=CC(=O)N[C@H]1CC[C@H](NC(=O)c2sc3nccc4c3c2NC(=O)N4c2cnc(Oc3ccccc3)cc2C)C1 (single isomer, unassigned) [Example 306, N-((1*S,3*S)-3-Acrylamidocyclopentyl)-5-(*S)-(4-methyl-6-phenoxypyridin-3-yl)-4-oxo-4,5-dihydro-3H-1-thia-3,5,8-triazaacenaphthylene-2-carboxamide]  8.04
3. C=CC(=O)N[C@H]1CCCC[C@H]1NC(=O)c1sc2nccc3c2c1NC(=O)N3c1cnc(OCC(C)C)cc1C (single isomer, unassigned) [Example 312, N-((1R,2S)-2-Acrylamidocyclohexyl)-5-(*S)-(6-isobutoxy-4-methylpyridin-3-yl)-4-oxo-4,5-dihydro-3H-1-thia-3,5,8-triazaacenaphthylene-2-carboxamide]  8.01
4. C=CC(=O)N[C@@H]1CCC[C@H]1NC(=O)c1sc2nccc3c2c1NC(=O)N3c1ccc(Oc2ccccc2)nc1C (single isomer, unassigned) [Example 301, N-((1R,2R)-2-Acrylamidocyclopentyl)-5-(*S)-(2-methyl-6-phenoxypyridin-3-yl)-4-oxo-4,5-dihydro-3H-1-thia-3,5,8-triazaacenaphthylene-2-carboxamide]  7.97
5. C=CC(=O)N[C@H]1CCCC[C@H]1NC(=O)c1sc2nccc3c2c1NC(=O)N3c1cnc(OC2CCCC2)cc1C (single isomer, unassigned) [Example 309, N-((1R,2S)-2-Acrylamidocyclohexyl)-5-(*S)-(6-(cyclopentyloxy)-4-methylpyridin-3-yl)-4-oxo-4,5-dihydro-3H-1-thia-3,5,8-triazaacenaphthylene-2-carboxamide]  7.91
6. C=CC(=O)N[C@@H]1CC[C@H](NC(=O)c2sc3nccc4c3c2NC(=O)N4c2ccc(Oc3ccccc3)cn2)C1 (single isomer, unassigned) [Example 313]  7.83
7. C=CC(=O)N[C@H]1CCC[C@H](NC(=O)c2sc3nccc4c3c2NC(=O)N4c2cnc(Oc3ccccc3)cc2C)C1 (single isomer, unassigned) [Example 308, N-((1*S,3*S)-3-Acrylamidocyclohexyl)-5-(*S)-(4-methyl-6-phenoxypyridin-3-yl)-4-oxo-4,5-dihydro-3H-1-thia-3,5,8-triazaacenaphthylene-2-carboxamide]  7.78
8. C=CC(=O)N[C@H]1CC[C@H](NC(=O)c2sc3nccc4c3c2NC(=O)N4c2ccc(Oc3ccccc3)nc2)C1 (single isomer, unassigned) [Example 321, N-((1*S,3*S)-3-Acrylamidocyclopentyl)-4-oxo-5-(6-phenoxypyridin-3-yl)-4,5-dihydro-3H-1-thia-3,5,8-triazaacenaphthylene-2-carboxamide]  7.71
9. C=CC(=O)N[C@H]1CCC[C@H](NC(=O)c2sc3nccc4c3c2NC(=O)N4c2ccc(Oc3ccccc3)cn2)C1 (single isomer, unassigned) [Example 315, N-((1*S,3*S)-3-Acrylamidocyclohexyl)-4-oxo-5-(5-phenoxypyridin-2-yl)-4,5-dihydro-3H-1-thia-3,5,8-triazaacenaphthylene-2-carboxamide]  7.50
10. C=CC(=O)N[C@H]1CCC[C@H]1NC(=O)c1sc2nccc3c2c1NC(=O)N3c1ccc(OC2CCOCC2)cc1C (single isomer, unassigned) [Example 304, N-((1R,2S)-2-Acrylamidocyclopentyl)-5-(*S)-(2-methyl-4-((tetrahydro-2H-pyran-4-yl)oxy)phenyl)-4-oxo-4,5-dihydro-3H-1-thia-3,5,8-triazaacenaphthylene-2-carboxamide]  7.48
11. C=CC(=O)N[C@@H]1CCC[C@H]1NC(=O)c1sc2nccc3c2c1NC(=O)N3c1ccc(OC(C)C)cc1C (single isomer, unassigned) [Example 316, N-((1R,2R)-2-Acrylamidocyclopentyl)-5-(*S)-(4-isopropoxy-2-methylphenyl)-4-oxo-4,5-dihydro-3H-1-thia-3,5,8-triazaacenaphthylene-2-carboxamide]  7.33
12. C=CC(=O)N[C@H]1CCC[C@H](NC(=O)c2sc3nccc4c3c2NC(=O)N4c2ccc(Oc3ccccc3)nc2)C1 (single isomer, unassigned) [Example 323]  7.13
13. C=CC(=O)N[C@@H]1CC[C@@H](NC(=O)c2sc3nccc4c3c2NC(=O)N4c2cnc(Oc3ccccc3)cc2C)C1 (single isomer, unassigned) [Example 329, N-((1*R,3*R)-3-Acrylamidocyclopentyl)-5-(*S)-(4-methyl-6-phenoxypyridin-3-yl)-4-oxo-4,5-dihydro-3H-1-thia-3,5,8-triazaacenaphthylene-2-carboxamide]  6.85
14. C=CC(=O)N[C@@H]1CCCC[C@H]1NC(=O)c1sc2nccc3c2c1NC(=O)N3c1ccc(Oc2ccccc2)nc1C (single isomer, unassigned) [Example 322, N-((1R,2R)-2-Acrylamidocyclohexyl)-5-(*S)-(2-methyl-6-phenoxypyridin-3-yl)-4-oxo-4,5-dihydro-3H-1-thia-3,5,8-triazaacenaphthylene-2-carboxamide]  6.81
15. C=CC(=O)N[C@@H]1CC[C@@H](NC(=O)c2sc3nccc4c3c2NC(=O)N4c2ccc(Oc3ccccc3)nc2)C1 (single isomer, unassigned) [Example 334, N-((1*R,3*R)-3-Acrylamidocyclopentyl)-4-oxo-5-(6-phenoxypyridin-3-yl)-4,5-dihydro-3H-1-thia-3,5,8-triazaacenaphthylene-2-carboxamide]  6.81
16. C=CC(=O)N[C@@H]1CCC[C@@H](NC(=O)c2sc3nccc4c3c2NC(=O)N4c2ccc(Oc3ccccc3)nc2)C1 (single isomer, unassigned) [Example 331, N-((1*R,3*R)-3-Acrylamidocyclohexyl)-4-oxo-5-(6-phenoxypyridin-3-yl)-4,5-dihydro-3H-1-thia-3,5,8-triazaacenaphthylene-2-carboxamide]  6.66
17. C=CC(=O)N[C@@H]1CCC[C@@H](NC(=O)c2sc3nccc4c3c2NC(=O)N4c2cnc(Oc3ccccc3)cc2C)C1 (single isomer, unassigned) [Example 332, N-((1*R,3*R)-3-Acrylamidocyclohexyl)-5-(*S)-(4-methyl-6-phenoxypyridin-3-yl)-4-oxo-4,5-dihydro-3H-1-thia-3,5,8-triazaacenaphthylene-2-carboxamide]  6.60
18. C=CC(=O)N[C@H]1CC[C@@H](NC(=O)c2sc3nccc4c3c2NC(=O)N4c2ccc(Oc3ccccc3)cn2)C1 (single isomer, unassigned) [Example 328, N-((1*R,3*S)-3-Acrylamidocyclopentyl)-4-oxo-5-(5-phenoxypyridin-2-yl)-4,5-dihydro-3H-1-thia-3,5,8-triazaacenaphthylene-2-carboxamide]  6.58
19. Cc1nc(Oc2ccccc2)ccc1N1C(=O)Nc2c(C(=O)N[C@@H]3CCCC[C@@H]3N)sc3nccc1c23 (single isomer, unassigned) [Example 333, N-((1R,2S)-2-Aminocyclohexyl)-5-(*S)-(2-methyl-6-phenoxypyridin-3-yl)-4-oxo-4,5-dihydro-3H-1-thia-3,5,8-triazaacenaphthylene-2-carboxamide]  6.50
20. Cc1nc(Oc2ccccc2)ccc1N1C(=O)Nc2c(C(=O)N[C@@H]3CCC[C@@H]3N)sc3nccc1c23 (single isomer, unassigned) [Example 318, N-((1*R,2*S)-2-Aminocyclopentyl)-5-(*S)-(2-methyl-6-phenoxypyridin-3-yl)-4-oxo-4,5-dihydro-3H-1-thia-3,5,8-triazaacenaphthylene-2-carboxamide]  6.46
21. Cc1cc(CC(C)C)ncc1N1C(=O)Nc2c(C(=O)N[C@@H]3CCCC[C@@H]3N)sc3nccc1c23 (single isomer, unassigned) [Example 335, N-((1R,2S)-2-Aminocyclohexyl)-5-(*S)-(6-isobutyl-4-methylpyridin-3-yl)-4-oxo-4,5-dihydro-3H-1-thia-3,5,8-triazaacenaphthylene-2-carboxamide]  6.38
22. Cc1nc(Oc2ccccc2)ccc1N1C(=O)Nc2c(C(=O)N[C@@H]3CCC[C@H]3N)sc3nccc1c23 (single isomer, unassigned) [Example 339, N-((1R,2R)-2-Aminocyclopentyl)-5-(*S)-(2-methyl-6-phenoxypyridin-3-yl)-4-oxo-4,5-dihydro-3H-1-thia-3,5,8-triazaacenaphthylene-2-carboxamide]  6.28
23. CC(=O)N[C@H]1CCCC[C@H]1NC(=O)c1sc2nccc3c2c1NC(=O)N3c1ccc(Oc2ccccc2)nc1C (single isomer, unassigned) [Example 340, N-((1R,2S)-2-Acetamidocyclohexyl)-5-(*S)-(2-methyl-6-phenoxypyridin-3-yl)-4-oxo-4,5-dihydro-3H-1-thia-3,5,8-triazaacenaphthylene-2-carboxamide]  6.26
